Assay results from the supplement of paper PMC4862054.
Where “and” joins values, the source holds several entries; their conditions need not be identical. Identical values can stand only once.

Assays:
Settings in all cases: incubation time: 72 h
[1] = test system: BT-474; test: normalised viability (% of control), CellTiter-Blue; higher = more viable cells (about 100 = DMSO control)
Procedure: (§1)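 DSRT, CellTiter-Blue viability, 72 h incubation. Signal is normalised to DMSO and benzethonium chloride controls. Value is the normalised response at dose 3.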

[2] = test system: BT-549; test: as above
Procedure: as §1

[3] = test system: CAL-120; test: as above
Procedure: as §1

[4] = test system: CAL-148; test: as above
Procedure: as §1

[5] = test system: CAL-51; test: as above
Procedure: as §1

[6] = test system: CAL-85-1; test: as above
Procedure: as §1

[7] = test system: DU-4475; test: as above
Procedure: as §1

[8] = test system: HCC1599; test: as above
Procedure: as §1

[9] = test system: HCC1937; test: as above
Procedure: as §1

[10] = test system: HDQ-P1; test: as above
Procedure: as §1

[11] = test system: Hs578T; test: as above
Procedure: as §1

[12] = test system: MDA-MB-231; test: as above
Procedure: as §1

[13] = test system: MDA-MB-436; test: as above
Procedure: as §1

[14] = test system: MDA-MB-453; test: as above
Procedure: as §1

[15] = test system: MDA-MB-468; test: as above
Procedure: as §1

[16] = test system: MFM-223; test: as above
Procedure: as §1

[17] = test system: SK-BR-3; test: as above
Procedure: as §1

[18] = test system: CAL-120; test: drug sensitivity score (DSS), CellTiter-Blue viability (DSS (AUC-based score)); higher = stronger viability inhibition; extreme values may be limits of the assay
Procedure: (§2)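 DSRT with the CellTiter-Blue (resazurin reduction) viability readout, fluorescence 560/590 nm, 72 h incubation. Plates were normalised to DMSO and benzethonium chloride controls. DSS is computed from the area under the fitted dose-response curve (5 or 9 concentrations).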

[19] = test system: SK-BR-3; test: as above
Procedure: as §2

[20] = test system: BT-474; test: drug sensitivity score (DSS), CellTox Green (DSS (AUC-based score)); higher = stronger drug effect (viability inhibition or cytotoxicity); extreme values may be limits of the assay
Summary of the method: (§3)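 After 72 h of incubation in 384-well plates with compound at 5 concentrations (10-fold steps, 10,000-fold range set per compound), breast cancer cell lines seeded in 20 µl suspension were read first for CellTox Green fluorescence at 485/520 nm. CellTiter-Glo luminescence was measured next, after 10 min at room temperature. Normalisation on each plate used 0.1 % DMSO and a positive kill control, and the drug sensitivity score was computed from the area under the fitted dose-response curve.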

[21] = test system: BT-549; test: as above
Summary of the method: as §3

[22] = test system: CAL-120; test: as above
Summary of the method: as §3

[23] = test system: HCC1143; test: as above
Summary of the method: as §3

[24] = test system: HCC1937; test: as above
Summary of the method: as §3

[25] = test system: Hs578T; test: as above
Summary of the method: as §3

[26] = test system: MCF-10A; test: as above
Summary of the method: as §3

[27] = test system: MDA-MB-468; test: as above
Summary of the method: as §3

Compound	drug sensitivity score [18]	drug sensitivity score [19]	drug sensitivity score [20]	drug sensitivity score [21]	drug sensitivity score [22]	drug sensitivity score [23]	drug sensitivity score [24]	drug sensitivity score [25]	drug sensitivity score [26]	drug sensitivity score [27]	normalised viability ([1]; 10 nM)	normalised viability ([2]; 10 nM)	normalised viability ([3]; 10 nM)	normalised viability ([4]; 1 nM)	normalised viability ([5]; 1 nM)	normalised viability ([6]; 1 nM)	normalised viability ([7]; 1 nM)	normalised viability ([8]; 10 nM)	normalised viability ([9]; 10 nM)	normalised viability ([10]; 1 nM)	other results
C[C@]12C=CC(=O)C=C1CC[C@@H]1[C@@H]2[C@@H](O)C[C@@]2(C)[C@H]1CC[C@]2(O)C(=O)CO [Prednisolone]	0	0	0	0	0	1.2	0	0	0	0											normalised viability ([1]; 100 nM): 102%; normalised viability ([2]; 100 nM): 104%; normalised viability ([3]; 100 nM): 79.9%; normalised viability ([4]; 10 nM): 111%; normalised viability ([5]; 10 nM): 98.4%; normalised viability ([6]; 10 nM): 109%; normalised viability ([7]; 10 nM): 101%; normalised viability ([8]; 100 nM): 102%; normalised viability ([9]; 100 nM): 94%; normalised viability ([10]; 10 nM): 108%; normalised viability ([11]; 100 nM): 81.3%; normalised viability ([12]; 100 nM): 114%; normalised viability ([13]; 100 nM): 96.6%; normalised viability ([14]; 10 nM): 105%; normalised viability ([15]; 100 nM): 108%; normalised viability ([16]; 100 nM): 97%; normalised viability ([17]; 100 nM): 60.8%
CCN(CC)CCNC(=O)c1c(C)[nH]c(/C=C2\C(=O)Nc3ccc(F)cc32)c1C [Sunitinib]	0	0	0	0	0	0	0	2.45	0	0	102% and 99.1%	96.5% and 73.3%	91.8% and 108%	96.4% and 97.8%	110% and 90.5%	95.3% and 104%	104% and 92%	125% and 105%	98.6% and 91%	103% and 99.8%	normalised viability ([11]; 10 nM): 96.2% and 90.4%; normalised viability ([12]; 10 nM): 84.8% and 87.2%; normalised viability ([13]; 10 nM): 102% and 107%; normalised viability ([14]; 1 nM): 89.4% and 98.1%; normalised viability ([15]; 10 nM): 100% and 107%; normalised viability ([16]; 10 nM): 93.5% and 87.9%; normalised viability ([17]; 10 nM): 85.7% and 80.3%
CC[C@@]1(O)C(=O)OCc2c1cc1n(c2=O)Cc2cc3c(CN(C)C)c(O)ccc3nc2-1 [Topotecan]	8.72	11.3	0.158	0	3.76	0	3.78	0	1.98	8.87	121%	107%	76.4%	96.4%	96.5%	91.2%	92.6%	109%	81.3%	114%	normalised viability ([11]; 10 nM): 101%; normalised viability ([12]; 10 nM): 90.1%; normalised viability ([13]; 10 nM): 107%; normalised viability ([14]; 1 nM): 101%; normalised viability ([15]; 10 nM): 93%; normalised viability ([16]; 10 nM): 92.1%; normalised viability ([17]; 10 nM): 85.5%
